Assay results as given in patent USRE40594E1, “Inhibitors of the bitter taste response” (Mount Sinai School of Medicine of New York University, priority 1998, dated 2008).
“Also recorded” adds a separate entry of the source.

Tested on: bovine taste receptor cell membranes (taste receptors) with transducin
Assay: G protein activation assay (trypsin sensitivity): activation of transducin by bitter tastant plus taste membranes
Assay type: biochemical, Bovine (Bos primigenius)
Text: Taste receptor is contacted with gustducin or transducin and tastant, in the presence or absence of test inhibitor, under conditions suitable for activation of the G-protein present. […] In specific non-limiting embodiments, a subunits of transducin or gustducin may be combined with βγ subunits prior to this step, as set forth above. To the reaction mixture comprising taste receptors and gustducin or transducin, test inhibitor and/or bitter tastant may be added, and the resulting solution incubated to permit interaction of the elements.
In preferred embodiments, activation is assessed by a trypsin digestion assay. […] In a specific, non-limiting example, to perform a trypsin digestion assay according to the invention, TPCK-treated trypsin (1:25 trypsin to total protein in the reaction mixture) may be added, and the digestion may be performed at room temperature for about 15 minutes and stopped by adding soybean trypsin inhibitor (6:1 mol/mol inhibitor to trypsin). […] The separated polypeptides may then be transferred by electro-blotter to a poly (vinylidene difluoride) membrane blocked by the addition of 5% BLOTTO [50 mM Tris-HCI, pH 7.4/100 mM NaCl/5% nonfat dry milk], (30 min). G-protein peptides may then be visualized by binding of antibody directed toward transducin or gustducin, followed, for example, by binding of a detectably labeled secondary antibody. If a horseradish peroxidase-labeled secondary antibody is used, binding may be visualized by developing with bicinchoninic acid staining reagents and exposure to x-ray film.
G Protein Activation Assays. Bovine (Bos primigenius) tongues were collected fresh from a local slaughterhouse and transported on ice to the laboratory. Circumvallate papillae were hand dissected, frozen in liquid nitrogen, and stored at −80° C. until use. […] The pelleted membranes were rinsed twice, resuspended in homogenization buffer lacking protease inhibitors, and further homogenized by 20 passages through a 25-gauge needle. Aliquots were either flash frozen or stored on ice until use. […] The separated polypeptides were transferred by electro-blotter to a poly (vinylidene difluoride) membrane, which was blocked by the addition of 5% BLOTTO [50 mM Tris-HCI, pH 7.4/100 mM NaCl/5% nonfat dry milk], (30 min), then transducin peptides were visualized by binding of transducin antiserum and horseradish peroxidase-labeled goat anti-rabbit secondary antibody, followed by developing with bicinchoninic acid staining reagents from Bio-Rad and exposure to x-ray film.
Chemicals. All bitter tastant and buffer chemicals were of the highest purity available and were purchased either from Sigma or Boehringer Mannheim, unless otherwise noted. […] The rabbit polyclonal antitransducin antibody was a kind gift of Mel Simon and John Watson (California Institute of Technology, Pasadena, Calif.).

For `Nc1ncnc2c1ncn2[C@@H]1O[C@H](COP(=O)(O)O)[C@@H](O)[C@H]1O` [AMP, adenosine 5′ monophosphate], the “inhibition of activation of transducin by QUI plus bovine taste membranes” value (1.0 mM QUI, AMP 0.01-2.5 mM, FIG. 1B) was “inhibit; also recorded: inhibited in a dose-dependent fashion”, the “inhibition of taste membrane-dependent activation of transducin by atropine hydrochloride” value (AMP 2.5 mM, ATR 5.0 mM, FIG. 1C) was “inhibits; also recorded: inhibitory effect” and the “inhibition of taste membrane-dependent activation of transducin by DEN” value (AMP 2.5 mM, DEN 5.0 mM, FIG. 1C) was “inhibits; also recorded: inhibitory effect”. The “inhibition of taste membrane-dependent activation of transducin by nicotine hemisulfate” value (AMP 2.5 mM, NIC 5.0 mM, FIG. 1C) was “inhibits; also recorded: inhibitory effect”, the “inhibition of taste membrane-dependent activation of transducin by QUI” value (AMP 2.5 mM, QUI 1.0 mM, FIG. 1C) was “inhibits; also recorded: inhibitory effect” and the “inhibition of taste membrane-dependent activation of transducin by strychnine hydrochloride” value (AMP 2.5 mM, STR 5.0 mM, FIG. 1C) was “inhibits; also recorded: inhibitory effect”. The “inhibition of in vitro activation of transducin (G-protein) by taste membranes plus bitter compounds, summary statement” value (DEN, QUI and other bitter compounds, concentrations not given) was “inhibits”, the “inhibition of taste membrane activation of transducin by caffeic acid” value (concentrations not given) was “inhibitory effect” and the “inhibition of taste membrane activation of transducin by naringin” value (concentrations not given) was “inhibitory effect”. For the same compound, the “inhibition of taste membrane activation of transducin by quinacrine” value (concentrations not given) was “inhibitory effect”, the “inhibition of taste membrane activation of transducin by sparteine” value (concentrations not given) was “inhibitory effect” and the “inhibition of activation of transducin by DEN plus bovine taste receptor membranes” value (inhibitor 0.25, 0.5, 1.25, 2.5, 5.0 mM, DEN 5.0 mM, shift from 32-kDa to 23-kDa fragments, FIG. 1A/1E) was “inhibit; also recorded: inhibited in a dose-dependent fashion”.
